Reference: patent US20230320995A1, “IONIZABLE CATIONIC LIPIDS AND LIPID NANOPARTICLES” (CAPSTAN THERAPEUTICS, INC., priority 2022, published 2023)
Read-outs that look alike come from different tables or passages of the source.

Legend:
[1] = apparent pKa of ionizable lipid in lipid nanoparticle, TNS assay; format: physicochemical; conditions: for ΔpKa: difference of calculated and measured pKa; for pKa: TNS assay
Procedure: c Log D and c-pKa were calculated as noted above. The measured pKa of a lipid was determined as formulated in a lipid nanoparticle using the TNS assay as described in the following Example.
The apparent pKa of ionizable lipid in the lipid nanoparticle was determined using 6-(p-toluidino)-2-naphthalenesulfonic acid sodium salt (TNS salt, Toronto Research Chemicals, Toronto, ON, Canada). Lipid nanoparticles were diluted in 1×Dulbecco's PBS to a concentration of 1 mM total lipids. TNS salt was prepared as a 1 mg/mL stock solution in DMSO and then further diluted using distilled water to a working solution of 60 μg/mL ([…]). Diluted lipid nanoparticle samples were further diluted to 90 μM total lipids in 165 μL of buffered solution containing 10 mM HEPES, 10 mM MES, 10 mM ammonium acetate, 130 mM NaCl, and final TNS concentration of 1.33 μg/mL (4 μM) with the pH ranging from 3.5 to 12.2. Following pipette mixing and incubation at room temperature in the dark for 15 min, fluorescence intensity was measured at room temperature in a BioTek Synergy H1 plate reader using excitation and emission wavelengths of 321 and 445 nm, respectively. The fluorescence signal was blank subtracted and plotted as a function of the pH, then analyzed using a nonlinear (Boltzmann) regression analysis with the apparent pKa determined as the pH giving rise to half maximal fluorescence intensity as calculated by the Henderson-Hasselbalch equation.

[2] = ex vivo stability in mouse plasma; format: in vitro ADME; conditions: CD-1 mouse plasma, 37° C., 1 μM lipid
Procedure: To determine the stability of the disclosed lipids in mouse plasma lipid stock solution was prepared by dissolution of the lipid in isopropanol at the concentration of 5 mg/mL. A requisite volume of the lipid-isopropanol solution was then diluted to 100 μM concentration at a total volume of 10.0 mL with 50:50 (v/v) ethanol/water. Ten microliters of this 100 μM solution was spiked into 10.0 mL of mouse plasma (BioIVT, Lot MSE394920, CD-1 mouse, anticoagulant: sodium heparin, not filtered) that was prewarmed to 37° C. and stirred at 50 rpm with a magnetic stir bar. The starting concentration of lipids in plasma was thus 1 μM. Aliquots (50 μL) were taken after 0, 15, 30, 45, 60, and 120 minutes, transferred to microcentrifuge tubes and quenched with three volumes (150 μL) of ice cold acetonitrile/methanol (4:1). Positive control incubations utilized the same plasma, with Benfluorex (1 μM) as the substrate with Labetalol (1.0 μgl) as the in situ disappearance. The quenched solutions were vortexed, centrifuged for 5 minutes at 13,000 rpm, and supernatant (100 μL) transferred to a 96-well plate and diluted with water (200 μL, 0.1% FA). After filtration through a 0.45 μm 96-well filtering plate, the filtrates were analyzed by LC-MS (Waters AQUITY I-class UPLC system, ThermoScientific Vanquish UPLC system consisting of a binary pump, autosampler, and column compartment, Waters Xevo G2-XS QT of mass spectrometer; Phenomenex F5, 1.7 μm, 2.1×50 mm column). Mobile phase A was 0.1% formic acid in water, and mobile phase B was 0.1% formic acid in acetonitrile. The flow rate was 0.6 mL/min. Elution gradient was as follows: time, 0.5 min: 20% B; 0.5-2 min: 20-100% B; 2-4.8 min: 100% B; 4.8-5.45 min: 100-20% B. Mass spectrometry was in positive scanning mode from 600-1100 m/z. The peak of the molecular ion of the lipids was integrated in extracted ion chromatography (XIC) using Xcalibur software (Thermo Fisher). The relative peak area compared to T=0, after normalization by the peak area of the internal standard, was used as the percentage of the lipid remaining at each time point. T1/2 values were calculated using the first-order decay model.

[3] = physical-chemical properties of LNP encapsulating mCherry mRNA; format: physicochemical; conditions: for Encapapsulation Efficiency / PDI (polydispersity index): LNP 50:10:38.5:1.5, mCherry mRNA; for Encapapsulation Efficiency / Hydrodynamic diameter: N/P 6; for PDI (polydispersity index) / Hydrodynamic diameter: DLS; for Hydrodynamic diameter: LNP: ionizable lipid/DSPC/cholesterol/DMG-PEG2000 50:10:38.5:1.5, mCherry mRNA, pH 7.4 Tris, 25° C.
From the text: The mRNA was encapsulated in LNP using a self-assembly process in which an aqueous solution of mRNA at pH=3.5 is rapidly mixed with a solution of lipids dissolved in ethanol, then followed by stepwise phosphate and Tris buffer dilution and tangential flow filtration (TFF) purification. LNP composition in this study was: ionizable cationic lipid/distearoylphosphatidylcholine/cholesterol/DMG-PEG2000 (50:10:38.5:1.5 mol/mol) and were encapsulated at an N/P ratio (the ratio of positively-chargeable lipid amine (N=nitrogen) groups to negatively-charged nucleic acid phosphate (P) groups) at 6. LNPs were frozen at −80° C. […] The diameter of the nanoparticles was measured by dynamic light scattering using a Zetasizer Nano ZS (Malvern Instruments Ltd., Malvern, UK) instrument. Size measurement was carried out in pH 7.4 Tris buffer at 25° C. in relevant disposable capillary cells. A non-invasive back scatter system (NIBS) with a scattering angle of 173° was used for size measurements.

[4] = physical-chemical properties of CD5-targeted tLNP encapsulating mCherry mRNA; format: physicochemical; conditions: for Hydrodynamic diameter: anti-CD5 tLNP: ionizable lipid/DSPC/cholesterol/DMG-PEG 2000/DSPE-PEG2000-Maleimide 50:10:38.5:1.4:0.1; for Hydrodynamic diameter / PDI (polydispersity index): DLS; for PDI (polydispersity index) / Encapsulation Efficiency: anti-CD5 tLNP; for Encapsulation Efficiency: RiboGreen assay
From the text: CleanCap® mCherry 5-methoxyuridine (5moU) mRNA (L-7203) was purchased from TriLink. mRNA was encapsulated in LNP using a self-assembly process in which an aqueous solution of mRNA at pH=3.5 is rapidly mixed with a solution of lipids dissolved in ethanol, then followed by stepwise phosphate and Tris buffer dilution and TFF purification. LNP composition in this study was: ionizable cationic lipid/distearoylphosphatidylcholine/cholesterol/DMG-PEG 2000/distearoylphosphatidyl ethanolamine(DSPE)-PEG2000-Maleimide (50:10:38.5:1.4:0.1 mol/mol) and were encapsulated at an N/P ratio (the ratio of positively-chargeable […] amine (N=nitrogen) groups to negatively-charged nucleic acid phosphate (P) groups) at 6. The hydrodynamic diameter of the nanoparticles was measured by dynamic light scattering using a Zetasizer Nano ZS (Malvern Instruments Ltd., Malvern, UK) instrument.
Next, an anti-CD5 mAb was conjugated to the above LNP to generate tLNP. Purified rat anti-mouse CD5 antibody, clone 53-7.3 (BioLegend), was coupled to LNP via N-succinimidyl S-acetylthioacetate (SATA)-maleimide conjugation chemistry. Briefly, LNPs with DSPE-PEG(2000)-maleimide incorporated were formulated and stored at 4° C. on the day of conjugation. The antibody was modified with SATA (Sigma-Aldrich) to introduce sulfhydryl groups at accessible lysine residues allowing conjugation to maleimide. SATA was deprotected using 0.5 M hydroxylamine followed by removal of the unreacted components by G-25 Sephadex Quick Spin Protein columns (Roche Applied Science, Indianapolis, IN). The reactive sulfhydryl group on the antibody was then conjugated to maleimide moieties on the LNPs using thioether conjugation chemistry. Purification was performed using Sepharose CL-4B gel filtration columns (Sigma-Aldrich). tLNPs (LNPs conjugated with a targeting antibody) were frozen at −80° C. Others have conjugated antibody to free functionalized PEG-lipid and then incorporated the conjugated lipid into pre-formed LNP.
mRNA content was determined using a Quant-iT™ RiboGreen RNA assay kit (Invitrogen™). Encapsulation efficiency was calculated by determining the unencapsulated mRNA content by measuring the fluorescence intensity (Fi) upon the addition of RiboGreen reagent to the LNP and comparing this value to the total fluorescence intensity (Ft) of the RNA content that is obtained upon lysis of the LNPs by 1% Triton X-100, where % encapsulation=(Ft−Fi)/Ft x 100).
The particle size (hydrodynamic diameter) and polydispersity index of the targeted lipid nanoparticles were determined using dynamic light scattering (DLS) on a Malvern Zetasizer Nano ZS (Malvern Instruments, Worcestershire, UK). Size measurement was carried out in pH 7.4 Tris buffer at 25° C. in relevant disposable capillary cells. A non-invasive back scatter system (NIBS) with a scattering angle of 173° was used for size measurements.

[5] = ionizable lipid in tLNP, read-out: Measured pKa
[6] = measured, lipid formulated in a lipid nanoparticle, read-out: pKa

ΔpKa [1] | pKa [1, 5] | pKa [1, 6] | ex vivo Mouse Plasm Stability % Remaining at 2 Hours [2] [%] | Encapapsulation Efficiency [3] [%] | PDI (polydispersity index) [3] | Hydrodynamic diameter [3] [nm] | Hydrodynamic diameter [4] [nm] | PDI (polydispersity index) [4] | Encapsulation Efficiency [4] [%] | SMILES
0.80 | 7.51 | 7.51 | 64 | 99 | – | 101 | 100 | 0.10 | 99 | CCCCCCCCC(=O)OCC(COC(=O)CCCCCCCC)CC(=O)OCCN(CCOC(=O)CC(COC(=O)CCCCCCCC)COC(=O)CCCCCCCC)C(=O)NCCN(C)C [Compound A-13]
0.91 | 7.46 | 7.46 | 61 | 91 | 0.03 | 127 | 100 | 0.05 | 95 | CCCCCCCCC(=O)OCC(COC(=O)CCCCCCCC)CC(=O)OCCN(CCOC(=O)CC(COC(=O)CCCCCCCC)COC(=O)CCCCCCCC)C(=O)N(C)CCN(C)C [Compound A-14]
1.18 | 8.37 | 8.37 | 69 | 99 | 0.07 | 97 | 136 | 0.15 | 98 | CCCCCCCCC(=O)OCC(COC(=O)CCCCCCCC)CC(=O)OCCN(CCOC(=O)CC(COC(=O)CCCCCCCC)COC(=O)CCCCCCCC)C(=O)N(C)CCCN(C)C [Compound A-15]

SMILES | ΔpKa [1] | pKa [1, 5] | pKa [1, 6] | ex vivo Mouse Plasm Stability % Remaining at 2 Hours [2] [%] | Encapapsulation Efficiency [3] [%] | PDI (polydispersity index) [3] | Hydrodynamic diameter [3] [nm] | Hydrodynamic diameter [4] [nm] | PDI (polydispersity index) [4] | Encapsulation Efficiency [4] [%]
CCCCCCCCC(=O)OCC(COC(=O)CCCCCCCC)CC(=O)OCCN(CCOC(=O)CC(COC(=O)CCCCCCCC)COC(=O)CCCCCCCC)C(=O)OCCCN(C)C [Compound A-12] | 1.91 | 7.35 | 7.35 | 85 | 91 | 0.04 | 104 | 98 | 0.07 | 92
